# Read-outs that look alike come from different tables or passages of the source.
# Assays:
# [1] = molecular target: T1, human glucocorticoid receptor (Homo sapiens, UniProt P04150); assay: Glucocorticoid Receptor Binding Assay (I), fluorescence polarization competitor kit (Fluormone GS Red); settings: purified human recombinant full-length GR
# T1 construct: purified human recombinant full-length glucocorticoid receptor (2 nM); purchased Invitrogen Part # 2893
# T1 sequence (P04150 1-777): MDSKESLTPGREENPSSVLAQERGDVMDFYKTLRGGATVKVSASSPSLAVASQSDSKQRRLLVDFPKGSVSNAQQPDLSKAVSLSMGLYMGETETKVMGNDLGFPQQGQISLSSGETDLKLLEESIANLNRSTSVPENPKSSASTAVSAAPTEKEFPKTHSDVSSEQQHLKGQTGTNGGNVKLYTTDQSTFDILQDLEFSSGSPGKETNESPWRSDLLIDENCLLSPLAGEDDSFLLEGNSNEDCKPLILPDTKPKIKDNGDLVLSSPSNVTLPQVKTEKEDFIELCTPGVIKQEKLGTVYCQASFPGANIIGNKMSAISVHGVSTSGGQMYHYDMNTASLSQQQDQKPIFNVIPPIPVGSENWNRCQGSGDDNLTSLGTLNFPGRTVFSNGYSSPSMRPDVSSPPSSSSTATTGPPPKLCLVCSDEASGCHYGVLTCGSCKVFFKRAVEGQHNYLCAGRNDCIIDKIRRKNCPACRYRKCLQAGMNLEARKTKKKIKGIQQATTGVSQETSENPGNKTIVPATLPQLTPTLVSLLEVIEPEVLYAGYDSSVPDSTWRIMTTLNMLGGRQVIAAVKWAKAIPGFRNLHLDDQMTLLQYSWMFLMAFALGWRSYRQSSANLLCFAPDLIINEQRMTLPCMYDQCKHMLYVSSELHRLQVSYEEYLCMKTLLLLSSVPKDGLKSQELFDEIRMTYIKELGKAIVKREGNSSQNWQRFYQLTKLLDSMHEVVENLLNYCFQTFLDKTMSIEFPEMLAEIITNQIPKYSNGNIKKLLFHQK
# Experimental: In order to assess the affinity of test compounds for the human glucocorticoid receptor, a commercially available kit was used (Glucocorticoid Receptor Competitor Assay Kit, Invitrogen Part # 2893). Briefly, purified human recombinant full-length glucocorticoid receptor (2 nM) was mixed with fluorescently labeled glucocorticoid (1 nM Fluormone GS Red) in the presence or absence of test compound. After two hour incubation at room temperature in the dark, the fluorescence polarization (FP) of the samples was measured. […] Test compounds were analyzed in the concentration range from 8.5E-05 μM to 5 μM.
# [2] = system: AP-1 induced transcriptional activity; assay: Cellular Transrepressional Assay (AP-1 luciferase reporter in A549 cells, PMA-activated); format: cell-based; settings: pAP-1-Luc, 10 ng/ml PMA, read-out: AP-1 (EC50, nM) (Cellular Transrepression Assay)
# Experimental: To measure the ability of test molecules to inhibit AP-1 induced transcriptional activity an A549 cell was utilized which was stably transfected with a plasmid containing 7×AP-1 DNA binding sites (pAP-1-Luc plasmid, Stratagene Co. La Jolla, Calif.) followed by the gene for luciferase. Cells were activated with 10 ng/ml of phorbol myristic acid (PMA) plus or minus test molecules for 7 hours. After 7 hours a luciferase reagent was added to measure luciferase enzymatic activity in the cell. After a 10 minute incubation of luciferase reagent with cells, luminescence was measured in a TopCount luminescence counter. Repression of AP-1 activity was calculated as the percentage decrease in the signal induced by PMA alone. Test molecules were analyzed in the concentration range from 0.1 nM to 40 μM. EC50s were determined by using standard curve fitting methods such as Excel fit (Microsoft Co.).
Ki [1],EC50 ([2]; 7 hours),"EC50 ([2]; Homo sapiens, A549, 7 h)",SMILES
4 nM,71 nM,,"CC(CNC(=O)NC(C)(C)C)C(c1ccccc1)c1ccc2c(cnn2-c2ccc(F)cc2)c1 (single isomer, unassigned) [Example 97A, 1-tert-butyl-3-(3-(1-(4-fluorophenyl)-1H-indazol-5-yl)-2-methyl-3-phenylpropyl)urea]"
13 nM,,107 nM,"CC(C)CC(c1ccc2c(cnn2-c2ccc(F)cc2)c1)C(C)(C)CNC(=O)NC(c1ccccc1)c1ccccc1 (centres unmarked) [Example 73, 1-benzhydryl-3-(3-(1-(4-fluorophenyl)-1H-indazol-5-yl)-2,2,5-trimethylhexyl)urea]"
2.1 nM,,23 nM,"CCCC(c1ccc2c(cnn2-c2ccc(F)cc2)c1)C(C)(C)CNC(=O)NC(C)(C)C (centres unmarked) [Example 104, 1-tert-butyl-3-(3-(1-(4-fluorophenyl)-1H-indazol-5-yl)-2,2-dimethylhexyl)urea]"
17 nM,,> 10000 nM,"CC(C)CC(c1ccc2c(cnn2-c2ccc(F)cc2)c1)C(C)(C)CNC(=O)NC(C)(C)c1ccnc(C(C)(C)C)c1 (centres unmarked) [Example 64, 1-(2-(2-tert-butylpyridin-4-yl)propan-2-yl)-3-(3-(1-(4-fluorophenyl)-1H-indazol-5-yl)-2,2,5-trimethylhexyl)urea]"
1.6 nM,,58 nM,"CC(CNS(=O)(=O)CCC(F)(F)F)C(c1ccccc1)c1ccc2c(cnn2-c2ccc(F)cc2)c1 (centres unmarked) [Example 96, 3,3,3-trifluoro-N-(3-(1-(4-fluorophenyl)-1H-indazol-5-yl)-2-methyl-3-phenylpropyl)propane-1-sulfonamide]"
1.4 nM,,698 nM,"CC(C)CC(c1ccc2c(cnn2-c2ccc(F)cc2)c1)C(C)(C)CNC(=O)N(C)C (centres unmarked) [Example 55, 3-(3-(1-(4-fluorophenyl)-1H-indazol-5-yl)-2,2,5-trimethylhexyl)-1,1-dimethylurea]"
5.8 nM,,> 10000 nM,"CC(C)CC(c1ccc2c(cnn2-c2ccc(F)cc2)c1)C(C)(C)CNC(=O)NC1CCOCC1 (centres unmarked) [Example 37, 1-(3-(1-(4-fluorophenyl)-1H-indazol-5-yl)-2,2,5-trimethylhexyl)-3-(tetrahydro-2H-pyran-4-yl)urea]"
2.8 nM,83 nM,,"CC(CNS(=O)(=O)CC(F)(F)F)C(c1ccccc1)c1ccc2c(cnn2-c2ccc(F)cc2)c1 (single isomer, unassigned) [Example 91C, 2,2,2-trifluoro-N-(3-(1-(4-fluorophenyl)-1H-indazol-5-yl)-2-methyl-3-phenylpropyl)ethanesulfonamide]"
3 nM,,234 nM,"CC(C)CC(c1ccc2c(cnn2-c2ccc(F)cc2)c1)C(C)(C)CNC(=O)NC(CO)Cc1ccc(Cl)cc1 (centres unmarked) [Example 80, 1-(1-(4-chlorophenyl)-3-hydroxypropan-2-yl)-3-(3-(1-(4-fluorophenyl)-1H-indazol-5-yl)-2,2,5-trimethylhexyl)urea]"
3 nM,,624 nM,"CC(C)CC(c1ccc2c(cnn2-c2ccc(F)cc2)c1)C(C)(C)CNC(=O)NC(C)(C)CC(=O)O (centres unmarked) [Example 51, 3-(3-(3-(1-(4-fluorophenyl)-1H-indazol-5-yl)-2,2,5-trimethylhexyl)ureido)-3-methylbutanoic acid]"
0.63 nM,,13 nM,"CC(C)(CNC(=O)CC(F)(F)F)[C@@H](c1ccccc1)c1ccc2c(cnn2-c2ccc(F)cc2)c1 [(S)-17, (S)-3,3,3-trifluoro-N-(3-(1-(4-fluorophenyl)-1H-indazol-5-yl)-2,2-dimethyl-3-phenylpropyl)-propanamide]"
6.3 nM,,> 10000 nM,CC(C)CC(c1ccc2c(cnn2-c2ccc(F)cc2)c1)C(C)(C)CNC(=O)NC1(C)CCS(=O)(=O)C1 (centres unmarked) [Example 38]
2.3 nM,52 nM,,"CC(CNC(=O)CC(F)(F)F)C(c1ccccc1)c1ccc2c(cnn2-c2ccc(F)cc2)c1 (single isomer, unassigned) [Example 90A, 3,3,3-trifluoro-N-(3-(1-(4-fluorophenyl)-1H-indazol-5-yl)-2-methyl-3-phenylpropyl)propanamide]"
3.7 nM,,17 nM,"CCC(CNS(=O)(=O)CC(F)(F)F)C(c1ccccc1)c1ccc2c(cnn2-c2ccc(F)cc2)c1 (centres unmarked) [Example 98, 2,2,2-Trifluoro-N-(2-((1-(4-fluorophenyl)-1H-indazol-5-yl)(phenyl)methyl)butyl)ethanesulfonamide]"
3.1 nM,,42 nM,"CC(C)CC(c1ccc2c(cnn2-c2ccc(F)cc2)c1)C(C)(C)CNC(=O)NC(C)(C)c1ccccc1 (centres unmarked) [Example 48, 1-(3-(1-(4-fluorophenyl)-1H-indazol-5-yl)-2,2,5-trimethylhexyl)-3-(2-phenylpropan-2-yl)urea]"
1.5 nM,,6050 nM,"CC(C)CC(c1ccc2c(cnn2-c2ccc(F)cc2)c1)C(C)(C)CNC(=O)NC(CO)CO (centres unmarked) [Example 46, 1-(1,3-dihydroxypropan-2-yl)-3-(3-(1-(4-fluorophenyl)-1H-indazol-5-yl)-2,2,5-trimethylhexyl)urea]"
3.4 nM,,> 10000 nM,"CC(C)CC(c1ccc2c(cnn2-c2ccc(F)cc2)c1)C(C)(C)CNC(=O)[C@@H](O)C(C)(C)C (single isomer, unassigned) [Example 69 diastB, N-(3-(1-(4-fluorophenyl)-1H-indazol-5-yl)-2,2,5-trimethylhexyl)-2-hydroxy-3,3-dimethylbutanamide]"
1.7 nM,,77 nM,"C=CCC(c1ccc2c(cnn2-c2ccc(F)cc2)c1)C(C)(C)CNC(=O)NC(C)(C)C (centres unmarked) [Example 105, 1-tert-butyl-3-(3-(1-(4-fluorophenyl)-1H-indazol-5-yl)-2,2-dimethylhex-5-enyl)urea]"
7.5 nM,,223 nM,"CC(C)CC(c1ccc2c(cnn2-c2ccc(F)cc2)c1)C(C)(C)CNC(=O)Nc1ccccc1 (centres unmarked) [Example 50, 1-(3-(1-(4-fluorophenyl)-1H-indazol-5-yl)-2,2,5-trimethylhexyl)-3-phenylurea]"
1.7 nM,,8.1 nM,"CC(C)(C)NC(=O)NCC(C)(C)C(CC1CC1)c1ccc2c(cnn2-c2ccc(F)cc2)c1 (centres unmarked) [Example 108, 1-tert-Butyl-3-(4-cyclopropyl-3-(1-(4-fluorophenyl)-1H-indazol-5-yl)-2,2-dimethylbutyl)urea]"
11 nM,,5000 nM,"CC(C)CC(c1ccc2c(cnn2-c2ccc(F)cc2)c1)C(C)(C)CNC(=O)NC1CCN(Cc2ccccc2)CC1 (centres unmarked) [Example 79, 1-(1-benzylpiperidin-4-yl)-3-(3-(1-(4-fluorophenyl)-1H-indazol-5-yl)-2,2,5-trimethylhexyl)urea]"
2.3 nM,,772 nM,"Cc1ccc(C(C)(C)NC(=O)NCC(C)(C)C(CC(C)C)c2ccc3c(cnn3-c3ccc(F)cc3)c2)c(C)n1 (centres unmarked) [Example 52, 1-(2-(2,6-dimethylpyridin-3-yl)propan-2-yl)-3-(3-(1-(4-fluorophenyl)-1H-indazol-5-yl)-2,2,5-trimethylhexyl)urea]"
2.4 nM,,682 nM,"CC(C)CC(c1ccc2c(cnn2-c2ccc(F)cc2)c1)C(C)(C)CNC(=O)NC1(CO)CCCC1 (centres unmarked) [Example 42, 1-(3-(1-(4-fluorophenyl)-1H-indazol-5-yl)-2,2,5-trimethylhexyl)-3-(1-(hydroxymethyl)cyclopentyl)urea]"
3.1 nM,,2020 nM,"CC(C)(C)NC(=O)NCC(C)(C)C(CCCO)c1ccc2c(cnn2-c2ccc(F)cc2)c1 (centres unmarked) [Example 107, 1-tert-Butyl-3-(3-(1-(4-fluorophenyl)-1H-indazol-5-yl)-6-hydroxy-2,2-dimethylhexyl)urea]"
3.7 nM,,> 10000 nM,"CC(C)CC(c1ccc2c(cnn2-c2ccc(F)cc2)c1)C(C)(C)CNC(=O)[C@H](O)C(C)(C)C (single isomer, unassigned) [Example 69 diastA, N-(3-(1-(4-fluorophenyl)-1H-indazol-5-yl)-2,2,5-trimethylhexyl)-2-hydroxy-3,3-dimethylbutanamide]"

# Reference: patent US8198311B2, “Modulators of glucocorticoid receptor, AP-1, and/or NF-κB activity and use thereof” (Bristol-Myers Squibb Company, priority 2006, dated 2012)
